# Patent US20220228054A1, “FLUORESCENT NAPHTHALIMIDE POLYMERS AND SOLUTIONS THEREOF FOR SCALE CONTROL IN AQUEOUS SYSTEMS” (NOURYON CHEMICALS INTERNATIONAL B.V., priority 2019, published 2022)
# Assays:
# Type in all cases: physicochemical
# [1] = LC/FLD and GC/MS fluorescence of monomer species; conditions: for excitation maximum: at the emission maximum; for emission maximum: zero order excitation
# Description: The sample of this example was initially analyzed by LC/MS to identify the retention times of target peaks. The same sample was then analyzed using similar, but weaker LC conditions by LC/FLD. The first step was to collect emission spectra with zero order excitation, this allows determining the emission maximum, which was 410 nm for the N-allyl-4-propoxy-1,8-naphthalimide and 450 nm for the N-allyl-4,5-dipropoxy-1,8-naphthalimide species.
# The next step was to collect excitation spectra at the emission maximum for each compound. This allows determining the individual excitation maximum, which was 375 nm and 395 nm for the N-allyl-4-propoxy-1,8-naphthalimide and the N-allyl-4,5-dipropoxy-1,8-naphthalimide species respectively. The final step is to collect a chromatogram at the individual excitation and emission maxima. The latter two steps are each done with time programming the wavelengths, so each only require a single chromatogram.
# Then the sample was analyzed by GC/MS to estimate the actual concentrations of the two components of interest. The ratio of the area percent by fluorescence and mass spec is the estimated relative fluorescence intensity. […] This assumes that the GC/MS area percent is the actual weight percent, which should be a close approximation.
# Solubility in water = assay: Solubility in water
# Description: The procedure of Example 4 in RU2640339 was repeated. An initial charge of 84 g of deionized water and 1 g of ammonium persulfate was placed in a 250 ml glass reactor with inlet ports for an agitator, water cooled condenser, thermocouple. 15 g of acrylic acid (0.208 moles, 99.73 mole percent of polymer) was weighed into a beaker and then 0.15 g of N-allyl-4-methoxy-1,8-naphthalimide (Monomer Example 2, formula weight 267, 0.00056 moles, […] of polymer) was added to the beaker and mixed until the powdered fluorescent monomer dissolved. This solution was then added to the reactor, with stirring. The reaction mixture was very cloudy, indicating insolubility of the N-allyl-4-methoxy-1,8-naphthalimide in the reaction mixture. The reactor contents were slowly heated to 85° C. When the temperature reached about 80° C., a strong exotherm was observed. The reaction mixture started to thicken and within minutes, a sticky, intractable mass was formed and started to rise up the stir shaft. An attempt was made to remove some of the reaction product from the reactor and try and dissolve it in water.
# [2] = Solubility in acrylic acid; conditions: 1.39 g in 10.5 g of acrylic acid
# Description: The solubility of the monomer reaction product of Monomer Example 2 in acrylic acid was measured in the following manner. 10 g of acrylic acid was taken and the dried monomer reaction product of Monomer Example 2 was added in 0.2 g aliquots. The Monomer Example 2 reaction product started to become insoluble after 1.39 g was added. Next, 0.5 g of acrylic acid was added to form a clear solution. The final solution had 1.39 g of reaction product of Example 2 in 10.5 g of acrylic acid. The weight of reaction product of Example 2 was 11.7% of the total solution weight.
Structure (SMILES),excitation maximum [1] [nm],emission maximum [1] [nm],further results
"C=CCN1C(=O)c2cccc3c(OCCC)ccc(c23)C1=O [Monomer Example 3, N-allyl-4-propoxy-1,8-naphthalimide]",375,410,–
"C=CCOc1ccc2c3c(cccc13)C(=O)N(CCC)C2=O [Monomer Example 4, N-propyl-4-allyloxy-1,8-naphthalimide]",–,–,solubility in water (in words) (Solubility in water): insolubility
"C=CCN1C(=O)c2cccc3c(OCCOCCOCCOC)ccc(c23)C1=O [Monomer Example 5, N-allyl-4-(methoxy, triethylene glycol) 1,8-naphthalimide]",–,–,"solubility in water (Solubility in water; 25° C., pH 7): less than 0.1 grams per 100 mis of water"
"C=CCN1C(=O)c2ccc(OCCC)c3c(OCCC)ccc(c23)C1=O [N-allyl-4,5-dipropoxy-1,8-naphthalimide]",395,450,–
"C=CCN1C(=O)c2cccc3c(OC)ccc(c23)C1=O [Monomer Example 2, N-allyl-4-methoxy-1,8-naphthalimide]",–,–,solubility in acrylic acid (weight of reaction product in clear solution) [2]: 11.7 % of the total solution weight
